According to patent US4212862A, “O,O-Diaryl-1-acyloxy-2,2,2-trichloroethylphosphonates and fungicides based thereon” (priority 1978, dated 1980):
Values joined by “and” are separate entries in the source; they are usually repeats but may differ in a detail not shown here. Equal entries are not always repeated.

Assays:
[1] = Acute peroral toxicity for warm-blooded animals (LD50, LD90); format: in vivo, white mice; details: mouse, in vivo, po, Table 2; peroral; read-out: LD50 for white mice
Method: Toxicity (LD50) was evaluated on males and females of white mice with peroral administration of the compounds. A portion of the test compound was mixed with the emulsifier Twin-20 and diluted with distilled water to the required working concentration. Administration of the preparation was effected by means of a metal probe and syringe directly into the stomach of test animals 2-3 hours after feeding. The tests were performed using several doses, 6 animals per each dose. Subsequent observation was effected for two weeks.

[2] = tested on: stalk rust of wheat (Puccinia graminis); format: in vivo; details: in vivo
[3] = tested on: stalk rust (Puccinia graminis f. tritici); format: in vivo; details: in vivo

| SMILES | LD50 at 336 h [1] [mg/kg] | Percentage of injury lowered [2] | Percentage of plants injured with rust, 1-st evaluation [3] [%] | Percentage of plants injured with rust, 2-nd evaluation [3] [%] | Weight of 1,000 grains [3] [g] | Yield [3] [c/ha] |
| --- | --- | --- | --- | --- | --- | --- |
| CCCCCCC(=O)OC(C(Cl)(Cl)Cl)P(=O)(Oc1ccc(C)cc1)Oc1ccc(C)cc1 (stereo not shown) [XXI] | > 1000 | 97% | 0.5 | 7.5 | 18.2 | 14.00 |
| CC(=O)OC(C(Cl)(Cl)Cl)P(=O)(Oc1ccc(C)cc1)Oc1ccc(C)cc1 (stereo not shown) [XVIII] | > 500 | 91% and 63% | 0.5 | 6.5 | 21.4 | 17.20 |
| CCCCCCC(=O)OC(C(Cl)(Cl)Cl)P(=O)(Oc1cc(C)cc(C)c1)Oc1cc(C)cc(C)c1 (stereo not shown) [XXIX] | > 1000 | 85% | 0.5 | 9.5 | 14.8 | 9.75 |
| CC(=O)OC(C(Cl)(Cl)Cl)P(=O)(Oc1cc(C)cc(C)c1)Oc1cc(C)cc(C)c1 (stereo not shown) [XXVI] | > 1000 | 84% | 0.5 | 10.0 | 16.7 | 11.70 |
| Cc1ccc(OP(=O)(Oc2ccc(C)cc2)C(OC(=O)c2ccccc2)C(Cl)(Cl)Cl)cc1 (stereo not shown) [XXIII] | > 1000 | 89% and 79% | 0.5 | 8.0 | 18.1 | 13.30 |
| CCCCCCC(=O)OC(C(Cl)(Cl)Cl)P(=O)(Oc1ccccc1)Oc1ccccc1 (stereo not shown) [IV] | > 1000 | 98% and 74% | 0.5 | 6.5 | 23.8 | 20.00 |
| CC(=O)OC(C(Cl)(Cl)Cl)P(=O)(Oc1cccc(C)c1)Oc1cccc(C)c1 (stereo not shown) [XII] | > 1000 | 86% and 68% | 0.5 | 8.0 | 16.1 | 11.00 |
| CCCC(=O)OC(C(Cl)(Cl)Cl)P(=O)(Oc1cc(C)cc(C)c1)Oc1cc(C)cc(C)c1 (stereo not shown) [XXVIII] | > 1000 | 73% | 0.5 | 7.0 | 16.6 | 11.60 |
| CCCC(=O)OC(C(Cl)(Cl)Cl)P(=O)(Oc1ccc(C)cc1)Oc1ccc(C)cc1 (stereo not shown) [XX] | > 1000 | 97% | 0.5 | 7.5 | 18.2 | 13.45 |
| CCCCC(CC)C(=O)OC(C(Cl)(Cl)Cl)P(=O)(Oc1ccc(C)cc1)Oc1ccc(C)cc1 (stereo not shown) [XXII] | > 1000 | 94% and 48% | 0.5 | 9.0 | 15.8 | 11.00 |
| CCC(=O)OC(C(Cl)(Cl)Cl)P(=O)(Oc1cccc(C)c1)Oc1cccc(C)c1 (stereo not shown) [XIII] | > 1000 | 98% and 85% | 0.5 | 10.0 | 16.9 | 12.05 |
| CCC(=O)OC(C(Cl)(Cl)Cl)P(=O)(Oc1ccc(Cl)c(C)c1)Oc1ccc(Cl)c(C)c1 (stereo not shown) [XLI] | > 1000 | 91% and 53% | – | – | – | – |
| CCC(=O)OC(C(Cl)(Cl)Cl)P(=O)(Oc1ccc(F)cc1)Oc1ccc(F)cc1 (stereo not shown) [XXXIII] | > 1000 | 100% and 62% | – | – | – | – |
